Where two headings read alike, the source gives them in different places.
Experiments:
Type in all cases: cell-based
NR2F6 = target: T1, NR2F6 (Homo sapiens, UniProt P10588); experiment: NR2F6 agonist screening, Firefly signal cmpd/DMSO
T1 construct: expressed in transfected cells; also transient transfection
T1 sequence (P10588 1-404): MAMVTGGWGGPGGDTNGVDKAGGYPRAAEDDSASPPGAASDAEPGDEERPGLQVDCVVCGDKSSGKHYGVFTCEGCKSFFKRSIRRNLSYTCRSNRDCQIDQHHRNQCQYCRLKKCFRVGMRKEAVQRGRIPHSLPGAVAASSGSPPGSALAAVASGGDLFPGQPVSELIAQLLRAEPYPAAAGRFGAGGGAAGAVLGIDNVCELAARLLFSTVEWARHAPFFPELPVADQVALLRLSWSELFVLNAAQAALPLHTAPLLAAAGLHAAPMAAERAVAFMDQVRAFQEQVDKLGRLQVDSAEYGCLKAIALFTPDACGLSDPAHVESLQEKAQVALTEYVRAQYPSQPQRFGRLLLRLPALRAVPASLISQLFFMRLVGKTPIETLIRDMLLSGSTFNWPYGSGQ

Renilla = Renilla signal in NR2F6 agonist screening, cmpd/DMSO; details: Renilla, F4
HEK293 pGL4 = experiment: Firefly_pGL signal, cmpd/DMSO (pGL4 control cells); details: Homo sapiens
NR2F6 LBD = target: T2, NR2F6 LBD (Homo sapiens, UniProt P10588); experiment: NR2F6 LBD transient transfection; details: LBD
T2 construct: expressed in transfected cells
T2 sequence (P10588 165-393 limits assumed): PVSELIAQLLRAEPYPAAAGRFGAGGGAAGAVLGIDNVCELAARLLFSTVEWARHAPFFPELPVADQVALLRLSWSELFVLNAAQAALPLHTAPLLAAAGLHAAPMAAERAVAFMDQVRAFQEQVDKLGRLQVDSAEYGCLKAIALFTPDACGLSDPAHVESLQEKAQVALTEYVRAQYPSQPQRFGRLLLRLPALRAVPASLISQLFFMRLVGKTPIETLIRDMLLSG
Outline: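 LBD-transfected cells treated at 40, 10, 2 and 0.5 μM (4 replicates); cytotoxicity measured in parallel, normalized to DMSO (0%) and zero signal (100%). Higher concentrations excluded where signal loss reflected toxicity.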

[1] = read-out: Renilla, F4, cmpd/DMSO (mean)
[2] = 1% FBS, read-out: Renilla, F4, 1% FBS, cmpd/DMSO (mean)
[3] = 10% FBS, read-out: Renilla, F4, 10% FBS, cmpd/DMSO (mean)
[4] = HEK293, 0.5 uM, pGL4, read-out: Firefly pGL4, cmpd/DMSO (mean)
[5] = HEK293, 2 uM, pGL4, read-out: Firefly pGL4, cmpd/DMSO (mean)
[6] = HEK293, 10 uM, pGL4, read-out: Firefly pGL4, cmpd/DMSO (mean)
[7] = HEK293, 40 uM, pGL4, read-out: Firefly pGL4, cmpd/DMSO (mean)
[8] = HEK293, pGL4, 1% FBS, 0.5 uM, read-out: Firefly, pGL4, 1% FBS, cmpd/DMSO (mean)
[9] = HEK293, pGL4, 1% FBS, 2 uM, read-out: Firefly, pGL4, 1% FBS, cmpd/DMSO (mean)
[10] = HEK293, pGL4, 1% FBS, 10 uM, read-out: Firefly, pGL4, 1% FBS, cmpd/DMSO (mean)
[11] = HEK293, pGL4, 1% FBS, 40 uM, read-out: Firefly, pGL4, 1% FBS, cmpd/DMSO (mean)
[12] = HEK293, pGL4, 10% FBS, 0.5 uM, read-out: Firefly, pGL4, 10% FBS, cmpd/DMSO (mean)
[13] = HEK293, pGL4, 10% FBS, 2 uM, read-out: Firefly, pGL4, 10% FBS, cmpd/DMSO (mean)
[14] = HEK293, pGL4, 10% FBS, 10 uM, read-out: Firefly, pGL4, 10% FBS, cmpd/DMSO (mean)
[15] = HEK293, pGL4, 10% FBS, 40 uM, read-out: Firefly, pGL4, 10% FBS, cmpd/DMSO (mean)

## O=S1(=O)C[C@H](NC2CCCCC2)[C@@H](S(=O)(=O)c2ccccc2)C1 [Compound D111]
NR2F6; 0.5 uM
  Firefly F4, cmpd/DMSO (mean): 1.1
NR2F6; 2 uM
  Firefly F4, cmpd/DMSO (mean): 1.1
NR2F6; 10 uM
  Firefly F4, cmpd/DMSO (mean): 2.0
NR2F6; 40 uM
  Firefly F4, cmpd/DMSO (mean): 2.7
NR2F6; 10% FBS, 40 uM
  F4, Firefly/Renilla for S/B(F4) > 3: 2.0
  Firefly, F4/pGL4 for S/B(F4) > 3: 2.7
  Firefly, F4, 10% FBS, cmpd/DMSO (mean): 3.6
NR2F6; 1% FBS, 0.5 uM
  Firefly, F4, 1% FBS, cmpd/DMSO (mean): 1.0
NR2F6; 1% FBS, 2 uM
  Firefly, F4, 1% FBS, cmpd/DMSO (mean): 1.1
NR2F6; 1% FBS, 10 uM
  Firefly, F4, 1% FBS, cmpd/DMSO (mean): 1.6
NR2F6; 1% FBS, 40 uM
  Firefly, F4, 1% FBS, cmpd/DMSO (mean): 2.1
NR2F6; 10% FBS, 0.5 uM
  Firefly, F4, 10% FBS, cmpd/DMSO (mean): 1.6
NR2F6; 10% FBS, 2 uM
  Firefly, F4, 10% FBS, cmpd/DMSO (mean): 1.6
NR2F6; 10% FBS, 10 uM
  Firefly, F4, 10% FBS, cmpd/DMSO (mean): 1.1
Renilla; [1]
  fold induction at 0.5 µM: 1
  fold induction at 2 µM: 1
  fold induction at 10 µM: 1.1
  fold induction at 40 µM: 1.4
Renilla; [2]
  fold induction at 0.5 µM: 1.1
  fold induction at 2 µM: 1.1
  fold induction at 10 µM: 1.3
  fold induction at 40 µM: 1.7
Renilla; [3]
  fold induction at 0.5 µM: 1.1
  fold induction at 2 µM: 1.1
  fold induction at 10 µM: 1.2
  fold induction at 40 µM: 1.8
HEK293 pGL4; [4]
  fold induction at 0.5 µM: 0.9
HEK293 pGL4; [5]
  fold induction at 2 µM: 1.4
HEK293 pGL4; [6]
  fold induction at 10 µM: 1.5
HEK293 pGL4; [7]
  fold induction at 40 µM: 1.8
HEK293 pGL4; [8]
  fold induction at 0.5 µM: 1
HEK293 pGL4; [9]
  fold induction at 2 µM: 1.2
HEK293 pGL4; [10]
  fold induction at 10 µM: 1.2
HEK293 pGL4; [11]
  fold induction at 40 µM: 1.2
HEK293 pGL4; [12]
  fold induction at 0.5 µM: 1.2
HEK293 pGL4; [13]
  fold induction at 2 µM: 1.2
HEK293 pGL4; [14]
  fold induction at 10 µM: 1.3
HEK293 pGL4; [15]
  fold induction at 40 µM: 1.3
NR2F6 LBD; 0.5 uM
  Firefly LBD, cmpd/DMSO (mean): 1.1
NR2F6 LBD; 2 uM
  Firefly LBD, cmpd/DMSO (mean): 1.4
NR2F6 LBD; 10 uM
  Firefly LBD, cmpd/DMSO (mean): 1.6
NR2F6 LBD; 40 uM
  Firefly LBD, cmpd/DMSO (mean): 1.9

## O=S1(=O)C[C@H](N2CCCC2)[C@@H](S(=O)(=O)c2ccc(Cl)cc2)C1 [Compound D122]
NR2F6; 0.5 uM
  Firefly F4, cmpd/DMSO (mean): 1.6
NR2F6; 2 uM
  Firefly F4, cmpd/DMSO (mean): 3.3
NR2F6; 10 uM
  Firefly F4, cmpd/DMSO (mean): 6.8
NR2F6; 40 uM
  Firefly F4, cmpd/DMSO (mean): 0.7
NR2F6; 1% FBS, 2 uM
  F4, Firefly/Renilla for S/B(F4) > 3: 2.3
  Firefly, F4/pGL4 for S/B(F4) > 3: 1.3
  Firefly, F4, 1% FBS, cmpd/DMSO (mean): 3.2
NR2F6; 10% FBS, 10 uM
  F4, Firefly/Renilla for S/B(F4) > 3: 3.9
  Firefly, F4/pGL4 for S/B(F4) > 3: 3.1
  Firefly, F4, 10% FBS, cmpd/DMSO (mean): 11
NR2F6; 1% FBS, 0.5 uM
  Firefly, F4, 1% FBS, cmpd/DMSO (mean): 1.4
NR2F6; 1% FBS, 10 uM
  Firefly, F4, 1% FBS, cmpd/DMSO (mean): 2.8
NR2F6; 1% FBS, 40 uM
  Firefly, F4, 1% FBS, cmpd/DMSO (mean): 0.3
NR2F6; 10% FBS, 0.5 uM
  Firefly, F4, 10% FBS, cmpd/DMSO (mean): 1.5
NR2F6; 10% FBS, 2 uM
  Firefly, F4, 10% FBS, cmpd/DMSO (mean): 1.8
NR2F6; 10% FBS, 40 uM
  Firefly, F4, 10% FBS, cmpd/DMSO (mean): 0.5
NR2F6; Table 31
  Activity, cmpd/DMSO: 6.6
Renilla; [1]
  fold induction at 0.5 µM: 1.1
  fold induction at 2 µM: 1.3
  fold induction at 10 µM: 2.2
  fold induction at 40 µM: 0.2
Renilla; [2]
  fold induction at 0.5 µM: 1.2
  fold induction at 2 µM: 1.4
  fold induction at 10 µM: 2.2
Renilla; [3]
  fold induction at 0.5 µM: 1
  fold induction at 2 µM: 1
  fold induction at 10 µM: 2.9
HEK293 pGL4; [4]
  fold induction at 0.5 µM: 1.3
HEK293 pGL4; [5]
  fold induction at 2 µM: 2.4
HEK293 pGL4; [6]
  fold induction at 10 µM: 2.3
HEK293 pGL4; [7]
  fold induction at 40 µM: 0.6
HEK293 pGL4; [8]
  fold induction at 0.5 µM: 1.1
HEK293 pGL4; [9]
  fold induction at 2 µM: 2.5
HEK293 pGL4; [10]
  fold induction at 10 µM: 2.6
HEK293 pGL4; [11]
  fold induction at 40 µM: 0.7
HEK293 pGL4; [12]
  fold induction at 0.5 µM: 0.9
HEK293 pGL4; [13]
  fold induction at 2 µM: 2.2
HEK293 pGL4; [14]
  fold induction at 10 µM: 3.7
HEK293 pGL4; [15]
  fold induction at 40 µM: 0.7
NR2F6 LBD; 0.5 uM
  Firefly LBD, cmpd/DMSO (mean): 1.2
NR2F6 LBD; 2 uM
  Firefly LBD, cmpd/DMSO (mean): 2.5
NR2F6 LBD; 10 uM
  Firefly LBD, cmpd/DMSO (mean): 3.1
NR2F6 LBD; 40 uM
  Firefly LBD, cmpd/DMSO (mean): 0.6
